# Assay results: patent US5776892A, “Anti-inflammatory peptides” (Curative Health Services, Inc., priority 1994, dated 1998)
# No end group written: not given here.
# Key:
# neutrophils [1] = test: Neutrophil chemotaxis to leukotriene B4; format: cell-based; conditions: 15 min pre-exposure; read at 1 hr; FIG. 4
# Experimental: (§1) The ability of CT-112 (SEQ. ID NO: 1) to inhibit chemotaxis of neutrophils in response to a variety of agents was assessed using Neuroprobe chemotaxis chambers. For these assays, neutrophils were resuspended in Hank's balanced salt solution with Ca^2+ and Mg^2+ to give a 5×10^6 cells/ml suspension after the cells were labeled with 1',7'-bis(2-carboxyethyl)-5-(6)-carboxyfluorescein. The neutrophils were exposed to CT-112 (SEQ. ID NO: 1) for approximately 15 min prior to addition to the chemotaxis chambers. CT-112 (SEQ. ID NO: 1) was present in both the top and bottom of the chambers, and the chemoattractant, either f-Met-Leu-Phe, leukotriene B4 or interleukin-8, was added to the bottom of chamber. Cells which had migrated through the membrane were determined by fluorescence at 530 nm at 1 hr after initiation of the assay.
# neutrophils [2] = test: Neutrophil chemotaxis to f-Met-Leu-Phe (Neuroprobe chamber, fluorescence 530 nm); format: cell-based; conditions: 15 min pre-exposure; read at 1 hr; FIG. 3
# Experimental: as §1
# [3] = tested on: DNCB-induced delayed-type hypersensitivity; test: Delayed-type hypersensitivity to DNCB, ear thickness; format: in vivo, mouse
# Experimental: CT-112 (SEQ. ID NO: 1) was tested for its ability to modulate the immune response in a mouse model of delayed hypersensitivity (Filipp et al., 1984, Allergy, 39: 499-507; Diezel et al., 1989 J. Invest. Dermatol. 93:322-326). The mice used in this study were 8-wk old hairless females (Jackson Laboratories). The mice were sensitized to a contact allergen (1-chloro-2,4-dinitrobenzene, DNCB) by painting the dorsothoracic region twice daily for 5 consecutive days with 50 μl of 0.5% DNCB in 75% acetone:25% vegetable oil. The animals were allowed to rest for 24 hr prior to challenge with DNCB. On the sixth day after initiation of the sensitization treatments, the animals were challenged with 50 μl of DNCB solution applied to the left ear. After 24 hrs, the ear thickness was determined and compared to the unchallenged ear.
# The treatment groups were as follows:
# b) Prednisone (intraperitoneal injection of 25 mg/kg, 2 hr prior to challenge);
# d) CT-112 (intraperitoneal injections of 60 mg/kg/injection at 3, 1, and 0.25 hr prior to challenge and 3, 6 and 21 hr post-challenge);
# e) DMSO control (topical application of 50 μl at 3, 1 and 0.25 hr prior to challenge; and
# f) CT-112 in DMSO (20 mg/ml, topical application of 50 μl at 3, 1, and 0.25 hr prior to challenge and 3, 6 and 21 hr post-challenge).
# neutrophils [4] = format: cell-based
# Text: In addition, CT-112 (SEQ. ID NO: 1) was not cytotoxic to neutrophils, as determined by viability testing using trypan blue exclusion (FIG. 3).
# [5] = ip 60 mg/kg/injection at 3, 1, 0.25 hr prior and 3, 6, 21 hr post-challenge
# [6] = topical 50 μl of 20 mg/ml in DMSO at 3, 1, 0.25 hr prior and 3, 6, 21 hr post-challenge
sequence,measurement,setting,value
"TTSQVRPR [CT-112, octapeptide derived from platelet factor 4]",chemotactic migration of neutrophils to LTB4,neutrophils [1],effectively inhibited
same,chemotactic migration of neutrophils to f-Met-Leu-Phe,neutrophils [2],effectively inhibited
same,% Inhibition of Inflammation,"[3]; 7-day pump, 60 mg/kg/24 hr",79.7%
same,Thickness Difference (Left-Right),"[3]; 7-day pump, 60 mg/kg/24 hr",0.00087 ± 0.000398 in
same,% Inhibition of Inflammation,[3]; [5],68.4%
same,Thickness Difference (Left-Right),[3]; [5],0.00169 ± 0.000643 in
same,% Inhibition of Inflammation,[3]; [6],18.2%
same,Thickness Difference (Left-Right),[3]; [6],0.0035 ± 0.000408 in
same,cytotoxicity to neutrophils (trypan blue exclusion),neutrophils [4],not cytotoxic
